Drawing on BindingDB's records for doi:10.1016/S0014-827X(03)00113-7 (Universit&Aagrove, 2003), this text covers Ki for 6 compounds.

Assay [1] addresses Muscarinic acetylcholine receptor M3 (Homo sapiens, UniProt P20309).
Assay [2] concerns the target T1, Muscarinic acetylcholine receptor M2 (Homo sapiens, UniProt P08172).
T1 sequence (P08172 whole entry): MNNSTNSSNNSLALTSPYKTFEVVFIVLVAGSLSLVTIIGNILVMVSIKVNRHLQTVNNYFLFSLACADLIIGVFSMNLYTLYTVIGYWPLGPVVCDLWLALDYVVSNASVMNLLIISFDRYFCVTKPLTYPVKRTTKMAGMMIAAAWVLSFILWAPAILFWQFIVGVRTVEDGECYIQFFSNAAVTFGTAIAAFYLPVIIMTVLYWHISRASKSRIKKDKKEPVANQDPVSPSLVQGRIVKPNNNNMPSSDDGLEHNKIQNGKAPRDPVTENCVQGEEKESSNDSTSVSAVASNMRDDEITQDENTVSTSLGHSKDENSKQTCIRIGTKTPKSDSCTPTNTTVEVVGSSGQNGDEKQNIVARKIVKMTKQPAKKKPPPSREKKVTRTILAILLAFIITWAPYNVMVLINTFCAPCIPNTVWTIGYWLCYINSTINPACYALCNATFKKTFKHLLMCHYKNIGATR

The target of assay [3] is T2, Muscarinic acetylcholine receptor M5 (Homo sapiens, UniProt P08912).
T2 sequence (P08912 whole entry): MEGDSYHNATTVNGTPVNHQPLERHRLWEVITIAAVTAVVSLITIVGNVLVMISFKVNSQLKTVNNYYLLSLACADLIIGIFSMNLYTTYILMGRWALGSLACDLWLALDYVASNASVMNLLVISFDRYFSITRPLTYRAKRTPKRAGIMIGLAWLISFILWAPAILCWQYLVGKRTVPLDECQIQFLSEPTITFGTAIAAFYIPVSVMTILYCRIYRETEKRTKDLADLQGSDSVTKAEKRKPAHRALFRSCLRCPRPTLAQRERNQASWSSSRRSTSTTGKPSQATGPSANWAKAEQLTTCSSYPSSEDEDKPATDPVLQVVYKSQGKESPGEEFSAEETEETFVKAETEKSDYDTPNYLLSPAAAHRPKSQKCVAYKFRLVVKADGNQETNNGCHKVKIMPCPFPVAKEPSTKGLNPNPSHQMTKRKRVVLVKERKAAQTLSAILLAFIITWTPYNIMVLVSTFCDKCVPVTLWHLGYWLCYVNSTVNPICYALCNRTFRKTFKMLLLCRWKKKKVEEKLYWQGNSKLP

One may read the Ki as a dissociation constant, usually derived from enzyme kinetics or from competition with a known ligand. The low end stands for higher affinity, the high end for lower affinity.

Muscarinic acetylcholine receptor M3, sequence (P20309 whole entry): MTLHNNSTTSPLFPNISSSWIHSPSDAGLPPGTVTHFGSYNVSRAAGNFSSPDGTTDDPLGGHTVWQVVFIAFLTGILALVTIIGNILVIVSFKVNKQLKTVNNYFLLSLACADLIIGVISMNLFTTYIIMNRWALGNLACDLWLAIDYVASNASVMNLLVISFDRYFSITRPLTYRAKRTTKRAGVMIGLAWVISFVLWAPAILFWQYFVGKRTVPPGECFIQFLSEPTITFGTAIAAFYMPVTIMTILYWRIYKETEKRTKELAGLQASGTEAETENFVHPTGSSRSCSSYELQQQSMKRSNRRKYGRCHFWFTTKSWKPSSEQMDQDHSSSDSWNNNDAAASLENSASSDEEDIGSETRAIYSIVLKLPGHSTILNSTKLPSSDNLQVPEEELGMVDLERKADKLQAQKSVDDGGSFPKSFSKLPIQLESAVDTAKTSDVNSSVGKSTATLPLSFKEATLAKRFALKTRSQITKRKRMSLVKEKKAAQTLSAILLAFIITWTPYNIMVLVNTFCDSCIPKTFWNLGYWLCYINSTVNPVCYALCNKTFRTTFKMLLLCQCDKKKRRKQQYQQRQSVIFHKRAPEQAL

As to `Cc1nccn1CC#CCN1OCCC1=O` [NSC_0], the results for the Ki in assay [1], in assay [2] and in assay [3] were 102 nM, 72.4 nM and 0.51 nM, respectively.
For the compound `Cc1n(CC#CCN2OCCC2=O)cc[n+]1C` [2-[4-(2,3-Dimethyl-1H-imidazolium-1-yl)-2-butynyl]isoxazolidin-3-one iodide], the results for the inhibition constant (Ki) in assay [1], in assay [2] and in assay [3] were 75.9 nM, 275 nM and 132 nM, respectively.
In the case of `Cc1nccn1CC#CCOc1ccon1` [3-[4-(2-Methyl-1H-imidazol-1-yl)-2-butynyl]oxyisoxazole sesquifumarate], the Ki in assay [1] came to 110 nM; in assay [2], 282 nM; in assay [3], 209 nM.
In the same order, the values of `Cc1n(CC#CCOc2ccon2)cc[n+]1-c1ccc(Br)cc1` [NSC_0] are 17 nM, 112 nM and 60.3 nM.
On the same counts, the results for `Cc1nccn1CC#CCOC1=NOCC1` [3-[4-(2-Methyl-1H-imidazol-1-yl)-2-butynyl]oxy-delta2-isoxazoline sesquifumarate] are 2.51 nM, 3.63 nM and 6.17 nM.
In the same order, the values of `Cc1n(CC#CCOC2=NOCC2)cc[n+]1C` [NSC_0] are 6.31 nM, 93.3 nM and 51.3 nM.
